Measurements from US20020026053A1, “Novel 3-(substituted) -2- indolinones compounds and use thereof as inhibitors of protein kinase activity” (priority 1997, published 2002).

Molecular target: T1, Met receptor (EGFR/Met chimeric cells, EMR) (Homo sapiens, UniProt P08581)
T1 construct: expressed in transfected cells; the other entry of the earlier key: EGFR (P00533, Epidermal growth factor receptor)
Assay: Met Autophosphorylation Assay
Type: biochemical
How it was run: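 Met phosphorylation was measured by capture ELISA. Lysates (90 μg/100 μl, HNTG plus 1 mM PMSF) from transiently transfected EGFR/Met chimera (EMR) cells were bound for 60 min at room temperature to wells holding rabbit anti-Met (C-28) on goat anti-rabbit coat. Phosphotyrosine was the read-out.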

T1 sequence (P08581 with tags, fused parts or gaps): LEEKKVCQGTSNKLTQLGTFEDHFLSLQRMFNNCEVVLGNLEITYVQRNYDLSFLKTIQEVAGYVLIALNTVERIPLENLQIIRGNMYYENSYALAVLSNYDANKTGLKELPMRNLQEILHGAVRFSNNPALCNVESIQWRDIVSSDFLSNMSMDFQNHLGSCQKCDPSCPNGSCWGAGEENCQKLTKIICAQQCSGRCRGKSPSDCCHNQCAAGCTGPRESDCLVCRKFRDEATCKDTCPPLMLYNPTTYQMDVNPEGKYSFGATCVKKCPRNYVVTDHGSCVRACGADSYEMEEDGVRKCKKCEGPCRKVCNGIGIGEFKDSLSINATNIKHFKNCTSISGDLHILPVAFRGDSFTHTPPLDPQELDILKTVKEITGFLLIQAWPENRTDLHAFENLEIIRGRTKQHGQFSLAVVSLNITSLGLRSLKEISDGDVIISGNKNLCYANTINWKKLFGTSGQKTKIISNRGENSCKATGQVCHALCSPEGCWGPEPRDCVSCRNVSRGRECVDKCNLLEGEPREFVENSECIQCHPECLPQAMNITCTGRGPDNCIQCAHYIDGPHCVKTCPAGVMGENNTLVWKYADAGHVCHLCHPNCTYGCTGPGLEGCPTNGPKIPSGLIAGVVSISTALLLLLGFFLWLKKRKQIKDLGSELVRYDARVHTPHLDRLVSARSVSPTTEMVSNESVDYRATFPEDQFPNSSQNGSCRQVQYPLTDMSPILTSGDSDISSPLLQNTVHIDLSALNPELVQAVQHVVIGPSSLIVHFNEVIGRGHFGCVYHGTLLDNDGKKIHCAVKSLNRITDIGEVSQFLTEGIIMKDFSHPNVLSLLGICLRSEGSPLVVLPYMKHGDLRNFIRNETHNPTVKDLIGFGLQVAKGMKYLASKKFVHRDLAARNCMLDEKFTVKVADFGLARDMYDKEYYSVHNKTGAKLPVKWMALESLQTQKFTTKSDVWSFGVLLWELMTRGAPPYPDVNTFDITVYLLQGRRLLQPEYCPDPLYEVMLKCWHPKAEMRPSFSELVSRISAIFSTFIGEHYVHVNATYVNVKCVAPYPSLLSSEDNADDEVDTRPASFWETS

| Structure (SMILES) | Met Kinase % Inhibition (P.130) [%] |
| --- | --- |
| Cc1c(Br)ccc2c1C(=Cc1ccc(F)c(F)c1)C(=O)N2 [10735/C03] | 66.2 |
| Cc1c(Br)ccc2c1C(=Cc1cccc(C(F)(F)F)c1)C(=O)N2 [10735/C05] | 59.4 |
